Assay results as given in PMC9386018, “A lymphatic-absorbed multi-targeted kinase inhibitor for myelofibrosis therapy” (Nature Communications, 2022).
Where “and” joins values, the source holds several entries; their conditions need not be identical. Equal entries are not always repeated.

How the values were obtained:
[1] = female, CD-1, mouse, in vivo, po, 0.167 h
in vivo = conditions: female, CD-1, mouse
[2] = Compound quantitation in blood and mesenteric lymph nodes; assay type: in vivo, mouse; conditions: mice; for uptake in the mesenteric lymph nodes compared to LP5-37: 4 h after oral 100 mg kg^−1
Experimental: Whole blood and mesenteric lymph nodes were collected either 30 min or 4 h following compound administration and stored at −20 °C until future processing and analysis by the University of Michigan Pharmacokinetics Core as above, or as outlined below, to determine compound concentrations in each tissue. […] Data was generated from n ≥ 4 individual animals per compound per study group or dose.
Briefly, acetonitrile was added to a final concentration of 60–80% to bone marrow, whole blood, plasma, lymphatic fluid, lymphatic proteo-lipid sub-fractions, or mesenteric lymph node samples for compound extraction. Extraction was performed by shaking and/or bead rupture using a Precellys Evolution tissue homogenizer (Bertin Technologies SAS). […] Optimization of MS and MS/MS parameters for MRM quantitation and maximum sensitivity of individual compounds was performed using SCIEX Analyst software (AB Sciex). […] All LC-MS/MS acquisitions were performed with an independent standard curve for each group of analytes and for each individual run. All solvents utilized were of Optima LC-MS Grade (Fisher Scientific). Data was generated from n ≥ 2 individual animals per compound per study condition or dose.

MAPK signaling = conditions: cited from earlier work
[3] = Pharmacokinetic analysis of plasma after intravenous and oral dosing
SET-2 cells = assay: SET-2 proliferation assay (CellTiter-Fluor); assay type: cell-based, human; conditions: 72 h, replicates (Fig. 2d)
Experimental: Viable cells were counted by CellTiter-Fluor Assay (Promega) according to manufacturer’s protocol, and all fluorescence values were corrected by a no-cell control. […] Caspase activity was measured by Caspase-Glo 3/7 assay (Promega) according to the manufacturer’s protocol, and all luminescence values were corrected by a no-cell control. Dose response proliferation and Caspase activation data was normalized to vehicle treated control cells and analyzed by non-linear regression for determination of IC50 values. Data was generated from n = 3 independent experiments performed in replicate.

In the case of `COc1ccc(-c2ccc3c(N4CCOC[C@@H]4C)nc(N4CCOC[C@@H]4C)nc3n2)cc1CO` [AZD8055], the Concentration [1] is reported as 704 ng/mL, the concentration at 0.167 h (in vivo; iv) is reported as 3300 ng/mL and the concentration at 0.5 h (in vivo; iv) is reported as 2510 ng/mL. It also gave a concentration at 1 h (in vivo; iv) of 1710 ng/mL, a concentration at 2 h (in vivo; iv) of 744 ng/mL and a concentration at 24 h (in vivo; iv) of 1 ng/mL. For the same compound, the concentration at 0.167 h (in vivo; po) was 626 ng/mL, the concentration at 0.5 h (in vivo; po) was 3700 ng/mL and the concentration at 1 h (in vivo; po) was 3440 ng/mL. The concentration at 2 h (in vivo; po) was 4880 ng/mL, the concentration at 7 h (in vivo; po) was 3930 ng/mL and the concentration at 16 h (in vivo; po) was 4430 ng/mL.

For `O=C(NOCCOCCOCCOCCONC(=O)c1ccc(F)c(F)c1Nc1ccc(I)cc1F)c1ccc(F)c(F)c1Nc1ccc(I)cc1F` [LP5-37], the “mesenteric lymph node levels versus blood” value ([2]; 4 h after oral 400 mg kg^−1) was “significantly higher than in blood”.

For `COCCOCCOCCOCCONC(=O)c1ccc(F)c(F)c1Nc1ccc(I)cc1F` [LP5-38], the “uptake in the mesenteric lymph nodes compared to LP5-37” value [2] was “reduced uptake”.

In the case of `O=C(NOC[C@H](O)CO)c1ccc(F)c(F)c1Nc1ccc(I)cc1F` [PD0325901], the “plasma concentration with significant pharmacologic activity against MAPK signaling” value (MAPK signaling) is listed as over 50 ng mL^−1.

With `O=C(NOCCO)c1ccc(F)c(F)c1Nc1ccc(I)cc1F` [PD0316684, reference compound] the concentration at 0.167 h ([3]; female, CD-1, mouse, plasma, iv, 15 mg kg^−1, Concentration (ng/mL), mice, single i.v. LP-182 15 mg kg^−1, 0.167 h, analyte = label, individual animals) was 771 ng/mL, the concentration at 1 h ([3]; female, CD-1, mouse, plasma, iv, 15 mg kg^−1, Concentration (ng/mL), mice, single i.v. LP-182 15 mg kg^−1, 1 h, analyte = label, individual animals) was 95.3 ng/mL and the concentration at 2 h ([3]; female, CD-1, mouse, plasma, iv, 15 mg kg^−1, Concentration (ng/mL), mice, single i.v. LP-182 15 mg kg^−1, 2 h, analyte = label, individual animals) was 58.1 ng/mL. It also gave a concentration at 4 h ([3]; female, CD-1, mouse, plasma, iv, 15 mg kg^−1, Concentration (ng/mL), mice, single i.v. LP-182 15 mg kg^−1, 4 h, analyte = label, individual animals) of 18.6 ng/mL, a concentration at 7 h ([3]; female, CD-1, mouse, plasma, iv, 15 mg kg^−1, Concentration (ng/mL), mice, single i.v. LP-182 15 mg kg^−1, 7 h, analyte = label, individual animals) of 5.74 ng/mL and a concentration at 16 h ([3]; female, CD-1, mouse, plasma, iv, 15 mg kg^−1, Concentration (ng/mL), mice, single i.v. LP-182 15 mg kg^−1, 16 h, analyte = label, individual animals) of 3.59 ng/mL. The concentration at 0.167 h ([3]; female, CD-1, mouse, plasma, iv, 15 mg kg^−1, Concentration, Figure 6c, Time 0.167 h, individual replicates) was 89.6 ng/mL, the concentration at 1 h ([3]; female, CD-1, mouse, plasma, iv, 15 mg kg^−1, Concentration, Figure 6c, Time 1 h, individual replicates) was 39.4 ng/mL and the concentration at 2 h ([3]; female, CD-1, mouse, plasma, iv, 15 mg kg^−1, Concentration, Figure 6c, Time 2 h, individual replicates) was 18.7 ng/mL. For the same compound, the concentration at 0.167 h ([3]; female, CD-1, mouse, plasma, iv, 15 mg kg^−1, Concentration, Figure 6d, Time 0.167 h, individual replicates) was 234 ng/mL, the concentration at 0.5 h ([3]; female, CD-1, mouse, plasma, iv, 15 mg kg^−1, Concentration, Figure 6d, Time 0.5 h, individual replicates) was 241 ng/mL and the concentration at 1 h ([3]; female, CD-1, mouse, plasma, iv, 15 mg kg^−1, Concentration, Figure 6d, Time 1 h, individual replicates) was 112 ng/mL. It also gave a concentration at 2 h ([3]; female, CD-1, mouse, plasma, iv, 15 mg kg^−1, Concentration, Figure 6d, Time 2 h, individual replicates) of 62.8 ng/mL, a concentration at 4 h ([3]; female, CD-1, mouse, plasma, iv, 15 mg kg^−1, Concentration, Figure 6d, Time 4 h, individual replicates) of 39.4 ng/mL and a concentration at 7 h ([3]; female, CD-1, mouse, plasma, iv, 15 mg kg^−1, Concentration, Figure 6d, Time 7 h, individual replicates) of 35.3 ng/mL. It also gave a concentration at 24 h ([3]; female, CD-1, mouse, plasma, iv, 15 mg kg^−1, Concentration, Figure 6d, Time 24 h, individual replicates) of 3.46 ng/mL, a concentration at 0.5 h ([3]; female, CD-1, mouse, plasma, po, 200 mg kg^−1, Concentration, Figure 6c, Time 0.5 h, individual replicates) of 644 ng/mL and a concentration at 7 h ([3]; female, CD-1, mouse, plasma, po, 200 mg kg^−1, Concentration, Figure 6c, Time 7 h, individual replicates) of 260 ng/mL. The concentration at 0.5 h ([3]; female, CD-1, mouse, plasma, po, 200 mg kg^−1, Concentration, Figure 6d, Time 0.5 h, individual replicates) was 254 ng/mL, the concentration at 1 h ([3]; female, CD-1, mouse, plasma, po, 200 mg kg^−1, Concentration, Figure 6d, Time 1 h, individual replicates) was 156 ng/mL and the concentration at 7 h ([3]; female, CD-1, mouse, plasma, po, 200 mg kg^−1, Concentration, Figure 6d, Time 7 h, individual replicates) was 201 ng/mL. The concentration at […] ([3]; female, CD-1, mouse, plasma, po, 200 mg kg^−1, Concentration, Figure 6d, Time […], individual replicates) was 131 ng/mL, the concentration at 0.167 h ([3]; female, CD-1, mouse, plasma, po, 400 mg kg^−1, Concentration (ng/mL), mice, single p.o. LP-182 400 mg kg^−1, 0.167 h, analyte = label, individual animals) was 175 ng/mL and the concentration at 0.5 h ([3]; female, CD-1, mouse, plasma, po, 400 mg kg^−1, Concentration (ng/mL), mice, single p.o. LP-182 400 mg kg^−1, 0.5 h, analyte = label, individual animals) was 399 ng/mL. For the same compound, the concentration at 1 h ([3]; female, CD-1, mouse, plasma, po, 400 mg kg^−1, Concentration (ng/mL), mice, single p.o. LP-182 400 mg kg^−1, 1 h, analyte = label, individual animals) was 500 ng/mL, the concentration at 4 h ([3]; female, CD-1, mouse, plasma, po, 400 mg kg^−1, Concentration (ng/mL), mice, single p.o. LP-182 400 mg kg^−1, 4 h, analyte = label, individual animals) was 76.7 ng/mL and the concentration at 16 h ([3]; female, CD-1, mouse, plasma, po, 400 mg kg^−1, Concentration (ng/mL), mice, single p.o. LP-182 400 mg kg^−1, 16 h, analyte = label, individual animals) was 68.3 ng/mL. The concentration at 24 h ([3]; female, CD-1, mouse, plasma, po, 400 mg kg^−1, Concentration (ng/mL), mice, single p.o. LP-182 400 mg kg^−1, 24 h, analyte = label, individual animals) was 78.6 ng/mL, the “plasma level maintained over 24 h” value ([3]; mice, after oral LP-182 400 mg kg^−1, analyte = label) was about 100 ng/mL and the “uptake in the mesenteric lymph nodes compared to LP5-37” value [2] was “reduced uptake”. The “Growth (%)” value (SET-2 cells; 0.0390625 µM) was 95.6027% and 82.3855% and 49.4653% and 99.6209% and 66.699% and 96.6844%, the “Growth (%)” value (SET-2 cells; 0.078125 µM) was 101.495% and 98.0639% and 103.106% and 103.604% and 92.0053% and 98.1242% and the “Growth (%)” value (SET-2 cells; 0.15625 µM) was 100.075% and 88.7042% and 52.4529% and 86.403% and 62.7397% and 78.9368%. For the same compound, the “Growth (%)” value (SET-2 cells; 0.3125 µM) was 97.1172% and 98.6318% and 60.2388% and 84.8639% and 78.1339% and 80.2658%, the “Growth (%)” value (SET-2 cells; 0.625 µM) was 88.0297% and 91.2009% and 71.3744% and 84.6376% and 79.2414% and 81.5948% and the “Growth (%)” value (SET-2 cells; 5 µM) was 71.6887% and 74.5167% and 60.9631% and 39.5066% and 70.9074% and 51.4432%. For the same compound, the “Growth (%)” value (SET-2 cells; 10 µM) was 49.6443% and 48.6858% and 23.1653% and 17.5522% and 22.5652% and 22.2053% and the “Growth (%)” value (SET-2 cells; 20 µM) was 15.211% and 15.14% and -3.18% and -3.361% and -4.513% and -3.5163%.
